In patent publication US9688689B2, “Compounds and compositions for inducing chondrogenesis” (Novartis AG, priority 2014, dated 2017):

Test system: Primary articular chondrocytes from normal bovine knees
Assay: NO Release Assay in Bovine Chondrocytes (inhibition of cytokine induced NO release, Greiss reagent)
Assay type: cell-based
Settings: Bos taurus, Chondrocyte; 20 ng/ml TNFα and 10 ng/ml human oncostatin M, 48 hours; read-out: NO Inh. IC50
Method: The compounds of the present invention were evaluated in two functional assays to assess their chondrogenesis activities (Type II Collagen Expression) and chondrocyte protective activities (NO release assay).
The assay was described in Johnson, K., et al., (2012) Science 336, 717-721. Chondrocytes release NO during OA pathogenesis. This assay measures the inhibition of nitric oxide release by the treated compound (an indicator of chondro-protection) Primary articular chondrocytes from normal bovine knees (Animal Technologies, Tyler, Tex.) were isolated after dissection and collagenase digestion (Worthington Biochemical) of the tibial plateau and femoral condyle articular cartilage. The cells were initially plated at 80-90% confluency after isolation. Primary chondrocytes were cultured in high-glucose Dulbecco's modified Eagle's medium (DMEM) supplemented with 10% fetal bovine serum (FBS), 1% L-glutamine, 100 units/ml of penicillin, and 50 μg/ml of streptomycin (Life Technologies, Carlsbad, Calif.) and maintained at 37° C. in the presence of 5% CO2 for 7 days prior to initiation of each experiment. During the 7-day culture period, the cells adhered and established a chondrocyte-like appearance that was maintained throughout the experimental period. Functional studies on chondrocytes were performed in high-glucose DMEM with no FBS unless indicated otherwise.
After one week of culture, 8500 cells were plated per well in Greiner 384 well white clear bottom plates in growth media. Following 24 hours of culture, the media was removed and replaced with serum free DMEM containing 20 ng/ml TNFα and 10 ng/ml human oncostatin M (inflammatory mediators). […] 20 μl of the supernatant was mixed with 20 μl of the Greiss reagent (Promega # G2930) and quantitated at 540 nm. The Greiss reagent part A (1% Sulfanilamide in 5% phosphoric acid) was mixed at a 1:1 ration with Greiss reagent part B (0.1% N-1-napthylethylenediamine dihydrochloride in water) immediately prior to added to the culture supernatant.

For `O=C(Nc1ccc(Cl)c(Cl)c1)[C@@H]1[C@H](c2ccncc2)[C@@H]2CC[C@H]1O2` [Compound 135], the IC50 was > 33 µM.
In the case of `O=C(Nc1ccc(Cl)c(Cl)c1)C1=C(c2cccc(C(F)(F)F)n2)[C@@H]2CC[C@H]1O2` [Compound 136], the IC50 is reported as 0.14 µM.
For `Cn1nc(C(F)(F)F)cc1C1=C(C(=O)Nc2ccc(-c3ccccc3F)c(F)c2)C2CC[C@@H]1O2` [Compound 137], the IC50 was 8.2 µM.
In the case of `O=C(Nc1ccc(Cl)c(Cl)c1)[C@H]1C2CC[C@H](O2)[C@H]1c1cnccn1` [Compound 140], the IC50 is reported as > 33 µM.
In the case of `Cn1nc(C(F)(F)F)cc1C1=C(C(=O)Nc2ccc(Cl)c(Cl)c2)[C@H]2CC[C@@H]1O2` [Compound 141], the IC50 is reported as 17 µM.
With `CCOC(=O)c1ccc(NC(=O)C2=C(c3cc(C(F)(F)F)nn3C)[C@@H]3CC[C@H]2O3)cc1` [Compound 142] the IC50 was > 33 µM.
`O=C(Nc1ccc(Cl)c(Cl)c1)C1=C(c2cnccn2)[C@@H]2CC[C@H]1O2` [Compound 144] was tested, and the IC50 was > 33 µM.
With `CCOC(=O)c1ccc(NC(=O)[C@H]2[C@H](c3ccc(OC)cn3)[C@@H]3CC[C@H]2O3)cc1` [Compound 151] the IC50 was > 33 µM.
With `O=C(Nc1ccc(Cl)c(Cl)c1)[C@@H]1[C@H](c2cccc(C(F)(F)F)n2)[C@@H]2CC[C@H]1O2` [Compound 155, (1R,2R,3R,4S)—N-(3,4-dichlorophenyl)-3-(6-(trifluoromethyl)pyridin-2-yl)-7-oxabicyclo[2.2.1]heptane-2-carboxamide] the IC50 was > 33 µM.
In the case of `O=C(Nc1cccc(C(F)(F)F)c1F)C1=C(c2cccc(C(F)(F)F)n2)C2CCC1O2` (stereo not drawn) [Compound 157], the IC50 is reported as 25 µM.
Work on `O=C(Nc1ccc(-c2ccccc2)c(Cl)c1)C1=C(c2cccc(C(F)(F)F)n2)[C@@H]2CC[C@H]1O2` [Compound 160, (1R,4S)—N-(2-chloro-[1,1′-biphenyl]-4-yl)-3-(6-(trifluoromethyl)pyridin-2-yl)-7-oxabicyclo[2.2.1]hept-2-ene-2-carboxamide] yielded an IC50 of 5.4 µM.
In the case of `O=C(Nc1ccc(Cl)c(Cl)c1)[C@H]1[C@H](c2ccncc2)[C@@H]2CC[C@H]1O2` [Compound 162], the IC50 is reported as > 33 µM.
For `O=C(Nc1ccc(-c2ccccc2F)c(F)c1)C1=C(c2cnccn2)[C@@H]2CC[C@H]1O2` [Compound 164], the IC50 was > 33 µM.
With `Cc1ccnc([C@H]2[C@@H](C(=O)Nc3ccc(-c4ccccc4F)c(F)c3)[C@H]3CC[C@@H]2O3)c1` [Compound 166] the IC50 was > 33 µM.
In the case of `O=C(Nc1ccc(-c2ccccc2F)c(F)c1)C1=C(c2ccnc(N3CC[C@H](O)C3)c2)[C@@H]2CC[C@H]1O2` [Compound 167], the IC50 is reported as > 33 µM.
